Entries after “also recorded” stand apart in the source; their conditions may differ.
Tests used:
[1] = system: brain tissue (CC, ST, FD, SN neurons); test: Histopathological examination of brain tissue; format: in vivo, rat; details: brain sections, H&E; AlCl3-induced AD rats
Method: (§1) The brain tissues of the rats were removed and rigorously washed in isotonic saline 24 h after they were euthanized following the last behavioral test. For histological investigation, four brains per group were preserved for the whole night in 10% neutral buffered formalin. The remaining six brains were split into two sections each. In order to create a 10% homogenate (w/v), the first component was instantaneously homogenized using an ice-cold solution that included 300 mM sucrose and 50 mM Tris-HCl (pH 7.4). The homogenate was centrifuged at 1800× g for 10 min at 4 °C for biochemical tests, and the supernatant was thereafter kept at −20 °C. The second portion was set aside for use in RT-PCR analysis at −80 °C [94].
Brain tissue samples were stationed in 10% formalin for 24 h, washed with water, and then serially diluted with alcohol to induce dehydration. After being submerged in paraffin, the specimens were cut into segments that were 4 µm thick using a microtome.

[2] = system: BDNF; test: Brain BDNF level (ELISA); format: in vivo, rat; details: AlCl3-induced AD rats; for BDNF (ng/mL): brain tissue, mean ± SE, n = 6
Method: as §1
(§2) See Supplementary Information.

[3] = system: HO-1; test: HO-1 mRNA expression (RT-qPCR); format: in vivo, rat; details: AlCl3-induced AD rats; for HO-1: mRNA expression in brain tissue, mean ± SE, n = 6
Method: as §1, §2

[4] = system: BAX/Bcl-2; test: BAX/Bcl-2 ratio of gene expression; format: in vivo, rat; details: AlCl3-induced AD rats
Method: as §1, §2

[5] = system: Caspase-1; test: Caspase-1 gene expression (RT-qPCR); format: in vivo, rat; design: reduction of Caspase-1 levels: concentration or dose not given beside the values; details: AlCl3-induced AD rats; for Caspase-1: gene expression, mean ± SE, n = 6
Method: as §1, §2

[6] = system: Wnt3a; test: Brain Wnt3a level; format: in vivo, rat; details: AlCl3-induced AD rats; for Wnt3a (ng/g Tissue): mean ± SE, n = 6
Method: as §1, §2

[7] = system: 5-HT; test: Brain 5-HT level (fluorometric); format: in vivo, rat; details: AlCl3-induced AD rats; for 5-HT (ng/g Tissue): brain tissue, mean ± SE, n = 6
Method: as §1
(§3) Brain monoamine levels were promptly assessed following the rats’ euthanasia to prevent changes in the substance’s concentration. Dopamine (DA), norepinephrine (NE), and serotonin (5-HT) fluorometric tests were conducted on brain tissue homogenate using the Ciarlone method. […] The concentrations were articulated as nanograms per gram of fresh tissue using the fluorescence of reference solutions [95].

[8] = system: GSK3β; test: GSK3β gene expression (RT-qPCR); format: in vivo, rat; details: gene expression; AlCl3-induced AD rats; mean ± SE, n = 6
Method: as §1, §2

[9] = system: IL-1β; test: Brain IL-1β level (ELISA); format: in vivo, rat; design: reduction in IL-1β levels: concentration or dose not given beside the values; details: AlCl3-induced AD rats; for IL-β (pg/g Tissue): mean ± SE, n = 6
Method: as §1, with “[94]. […]” for “[94].”

[10] = system: AChE; format: in vivo; design: reduction in AChE levels: concentration or dose not given beside the values; details: AlCl3-induced AD rats; for AChE (ng/g Tissue): brain tissue, mean ± SE, n = 6; for reduction in AChE levels: brain
[11] = system: AlCl3-induced AD rat model; test: Y-maze SAP test in AlCl3-induced AD rats; format: in vivo; details: for SAP%: mean ± SE, n = 6
Method: All procedures were conducted conforming to the applicable National Institutes of Health standards and regulations for the Care and Use of Laboratory Animals. In this experiment, adult male Dawley rats in excellent condition weighing between 300 and 320 g were used. The animals were acquired from the Nile Company for Pharmaceuticals and Chemical Industries (Cairo, Egypt). They were placed in a controlled laboratory setting with unrestricted access to water, a temperature range of 24 to 26 °C, and 12 h a light–dark cycle. Three rats per cage were housed in polycarbonate cages that were individually packed with paper and encased with stainless steel wire.
One kind of short-term memory that SAP can represent is spatial working memory. Three arms, designated A, B, or C, were employed in a black hardwood Y-maze with a symmetrical triangular core space. Rats were briefly positioned at the edge of one arm and given 8 min to freely navigate around the maze. When the rat’s rear paws were fully inside the arm, the entries were counted. The following formula was used to determine SAP based on the total number of arm entries and alternations: SAP (%) = [number of alternations/(total arm entries − 2)] × 100 [94].

[12] = system: TLR4; test: TLR4 mRNA expression (RT-qPCR); format: in vivo, rat; design: reduction of TLR4 mRNA expression: concentration or dose not given beside the values; details: AlCl3-induced AD rats; for TLR4: mRNA expression level, mean ± SE, n = 6
Method: as §1, §2

[13] = system: Nrf-2; test: Nrf-2 mRNA expression (RT-qPCR); format: in vivo, rat; details: AlCl3-induced AD rats; for Nrf-2: mRNA expression in brain tissue, mean ± SE, n = 6
Method: as §1, §2

[14] = system: Bcl-2; test: Bcl-2 gene expression (RT-qPCR); format: in vivo, rat; details: AlCl3-induced AD rats; for Bcl-2: gene expression, mean ± SE, n = 6
Method: as §1, §2

[15] = system: β-catenin; test: Brain β-catenin level; format: in vivo, rat; details: AlCl3-induced AD rats; for β-Catenin (ng/L): mean ± SE, n = 6
Method: as §1, §2

[16] = system: NE; test: Brain NE level (fluorometric); format: in vivo, rat; details: AlCl3-induced AD rats; for NE (nmol/g Tissue): brain tissue, mean ± SE, n = 6
Method: as §1, §3

[17] = system: NFκβ; test: NFκβ mRNA expression (RT-qPCR); format: in vivo, rat; design: reduction of NFκβ mRNA expression: concentration or dose not given beside the values; details: AlCl3-induced AD rats; for NFκβ: mRNA expression level, mean ± SE, n = 6
Method: as §1, §2

[18] = system: SOD; test: Brain SOD activity (colorimetric); format: in vivo, rat; details: brain tissue, AlCl3-induced AD rats; mean ± SE, n = 6
Method: as §1
The SOD enzyme activity was estimated using the Marklund et al. method, which is founded on the enzyme’s capacity to decrease the nitro blue tetrazolium dye at a wavelength of 540 nm. To evaluate the TAC, a colorimetric approach was employed to estimate the amount of hydrogen peroxide that remains after 3,5-dichloro-2-hydroxybenzene sulphonate is converted to a colored product at 660 nm.

CCOc1ccc(N2CC(=O)Oc3sc4c(c3C2=O)CCCCC4)cc1 [Compound 14, 4-(4-Ethoxyphenyl)-3,4,7,8,9,10-hexahydro-6H-cyclohepta[4,5]thieno[3,2-f][1,4]oxazepine-2,5-dione]
histopathological finding in CC, ST, FD and SN (NP = nuclear pyknosis) [1]: moderate NP in CC, FD, and SN, normal histology of neurons in ST; also recorded: significant pyknosis | elevation of BDNF levels [2]: 2.7 fold | BDNF (ng/mL) [2]: 115.8 ± 0.07 ^abc ng/mL | elevation of HO-1 mRNA expression [3]: 5.3 fold | HO-1 [3]: 0.64 ± 0.009 ^abc | BAX/Bcl-2 Ratio [4]: 7.84 | reduction of Caspase-1 levels [5]: 46.6% | Caspase-1 [5]: 5.08 ± 0.050 ^abc | elevation of Wnt3a levels [6]: 4 fold | Wnt3a (ng/g Tissue) [6]: 0.66 ± 0.02 ^abc ng/g Tissue | elevation of 5-HT levels [7]: 4.5 fold | 5-HT (ng/g Tissue) [7]: 8.22 ± 0.19 ^abc ng/g Tissue | GSK3β [8]: 3.13 ± 0.07 ^abc | reduction in IL-1β levels [9]: 49.3% | IL-β (pg/g Tissue) [9]: 59.92 ± 0.98 ^abc pg/g Tissue | AChE (ng/g Tissue) [10]: 19.4 ± 0.39 ^abc ng/g Tissue | reduction in AChE levels [10]: 71.2% | SAP% [11]: 77.5 ± 2.11 ^abc % | reduction of TLR4 mRNA expression [12]: 62.6% | TLR4 [12]: 3.60 ± 0.12 ^abc | elevation of Nrf-2 mRNA expression [13]: 3.1 fold | Nrf-2 [13]: 0.50 ± 0.020 ^abc | upregulation of Bcl-2 gene expression [14]: 5.8 fold | Bcl-2 [14]: 0.70 ± 0.004 ^abc | elevation of β-catenin levels [15]: 5.3 fold | β-Catenin (ng/L) [15]: 8.4 ± 0.09 ^abc ng/L | rise in the level of NE [16]: 2.1 times | NE (nmol/g Tissue) [16]: 386.7 ± 2.66 ^abc nmol/g Tissue | reduction of NFκβ mRNA expression [17]: 56% | NFκβ [17]: 3.73 ± 0.04 ^abc | SOD(U/g) [18]: 2.38 ± 0.78 ^abc U/g

COc1ccc(N2CC(=O)Oc3sc4c(c3C2=O)CCCCC4)cc1 [Compound 16, 4-(4-Methoxyphenyl)-3,4,7,8,9,10-hexahydro-6H-cyclohepta[4,5]thieno[3,2-f][1,4]oxa-zepine-2,5-dione]
histopathological finding in CC, ST, FD and SN (NP = nuclear pyknosis) [1]: mild NP in neurons in CC, as well as moderate NP in neurons of ST, FD, and SN; also recorded: minor NP in the CC and significant NP in FD, ST, and SN | elevation of BDNF levels [2]: 3.1 fold | BDNF (ng/mL) [2]: 134.8 ± 0.01 ^abc ng/mL | elevation of HO-1 mRNA expression [3]: 4.1 fold | HO-1 [3]: 0.50 ± 0.020 ^abc | BAX/Bcl-2 Ratio [4]: 9.75 | reduction of Caspase-1 levels [5]: 47% | Caspase-1 [5]: 5.04 ± 0.130 ^abc | elevation of Wnt3a levels [6]: 5.5 fold | Wnt3a (ng/g Tissue) [6]: 0.52 ± 0.01 ^abc ng/g Tissue | elevation of 5-HT levels [7]: 5.9 fold | 5-HT (ng/g Tissue) [7]: 10.65 ± 0.71 ^abc ng/g Tissue | GSK3β [8]: 2.18 ± 0.10 ^abc | reduction in IL-1β levels [9]: 55.2% | IL-β (pg/g Tissue) [9]: 53.04 ± 0.61 ^abc pg/g Tissue | AChE (ng/g Tissue) [10]: 16.83 ± 0.29 ^abc ng/g Tissue | reduction in AChE levels [10]: 75% | SAP% [11]: 71.67 ± 1.15 ^abc % | reduction of TLR4 mRNA expression [12]: 53.9% | TLR4 [12]: 4.43 ± 0.08 ^abc | elevation of Nrf-2 mRNA expression [13]: 2.9 fold | Nrf-2 [13]: 0.47 ± 0.005 ^abc | upregulation of Bcl-2 gene expression [14]: 5.2 fold | Bcl-2 [14]: 0.63 ± 0.020 ^abc | elevation of β-catenin levels [15]: 4.6 fold | β-Catenin (ng/L) [15]: 7.34 ± 0.12 ^abc ng/L | rise in the level of NE [16]: 2 times | NE (nmol/g Tissue) [16]: 366.4 ± 1.52 ^abc nmol/g Tissue | reduction of NFκβ mRNA expression [17]: 44.5% | NFκβ [17]: 4.70 ± 0.12 ^abc | SOD(U/g) [18]: 2.92 ± 0.20 ^abc U/g

O=C1CN(c2ccccc2)C(=O)c2c(sc3c2CCCCC3)O1 [Compound 11, 4-Phenyl-3,4,7,8,9,10-hexahydro-6H-cyclohepta[4,5]thieno[3,2-f][1,4]oxazepine-2,5-dione]
histopathological finding in CC, ST, FD and SN (NP = nuclear pyknosis) [1]: mild NP in neurons in CC and moderate NP in ST, FD, and SN; also recorded: minor NP in the CC and significant NP in FD, ST, and SN | elevation of BDNF levels [2]: 3 fold | BDNF (ng/mL) [2]: 127.3 ± 0.01 ^abc ng/mL | elevation of HO-1 mRNA expression [3]: 4.4 fold | HO-1 [3]: 0.53 ± 0.004 ^abc | BAX/Bcl-2 Ratio [4]: 13.15 | reduction of Caspase-1 levels [5]: 37.8% | Caspase-1 [5]: 5.92 ± 0.040 ^abc | elevation of Wnt3a levels [6]: 3.9 fold | Wnt3a (ng/g Tissue) [6]: 0.47 ± 0.01 ^abc ng/g Tissue | elevation of 5-HT levels [7]: 5.0 fold | 5-HT (ng/g Tissue) [7]: 9.13 ± 0.36 ^abc ng/g Tissue | GSK3β [8]: 2.34 ± 0.06 ^abc | reduction in IL-1β levels [9]: 42.1% | IL-β (pg/g Tissue) [9]: 68.56 ± 0.54 ^abc pg/g Tissue | AChE (ng/g Tissue) [10]: 20.09 ± 0.45 ^abc ng/g Tissue | reduction in AChE levels [10]: 70.1% | increase in SAP% [11]: 22% | SAP% [11]: 69.67 ± 1.69 ^abc % | reduction of TLR4 mRNA expression [12]: 42.2% | TLR4 [12]: 5.56 ± 0.1 ^abc | Nrf-2 [13]: 0.35 ± 0.006 ^abc | upregulation of Bcl-2 gene expression [14]: 4.3 fold | Bcl-2 [14]: 0.52 ± 0.020 ^abc | elevation of β-catenin levels [15]: 4.8 fold | β-Catenin (ng/L) [15]: 7.25 ± 0.04 ^abc ng/L | rise in the level of NE [16]: 1.7 times | NE (nmol/g Tissue) [16]: 321.2 ± 6.11 ^abc nmol/g Tissue | reduction of NFκβ mRNA expression [17]: 41.8% | NFκβ [17]: 4.93 ± 0.08 ^abc | SOD(U/g) [18]: 2.46 ± 0.32 ^abc U/g
